US9650339B2, “Inhibitors of histone demethylases” (Gilead Sciences, Inc., priority 2013, dated 2017)

How the values were obtained:
Format in all cases: cell-based
KDM5B = target: T1, KDM5B (Homo sapiens, UniProt Q9UGL1); assay: Histone lysine demethylase immunofluorescence assay, U2OS cells transfected with KDM5B; conditions: U2OS cells transfected with pCMVHA KDM5B; mark detected H3K4me2; 20 hours
T1 construct: (a.a. 1-752); host or cells: U2OS
T1 sequence (Q9UGL1 1-752): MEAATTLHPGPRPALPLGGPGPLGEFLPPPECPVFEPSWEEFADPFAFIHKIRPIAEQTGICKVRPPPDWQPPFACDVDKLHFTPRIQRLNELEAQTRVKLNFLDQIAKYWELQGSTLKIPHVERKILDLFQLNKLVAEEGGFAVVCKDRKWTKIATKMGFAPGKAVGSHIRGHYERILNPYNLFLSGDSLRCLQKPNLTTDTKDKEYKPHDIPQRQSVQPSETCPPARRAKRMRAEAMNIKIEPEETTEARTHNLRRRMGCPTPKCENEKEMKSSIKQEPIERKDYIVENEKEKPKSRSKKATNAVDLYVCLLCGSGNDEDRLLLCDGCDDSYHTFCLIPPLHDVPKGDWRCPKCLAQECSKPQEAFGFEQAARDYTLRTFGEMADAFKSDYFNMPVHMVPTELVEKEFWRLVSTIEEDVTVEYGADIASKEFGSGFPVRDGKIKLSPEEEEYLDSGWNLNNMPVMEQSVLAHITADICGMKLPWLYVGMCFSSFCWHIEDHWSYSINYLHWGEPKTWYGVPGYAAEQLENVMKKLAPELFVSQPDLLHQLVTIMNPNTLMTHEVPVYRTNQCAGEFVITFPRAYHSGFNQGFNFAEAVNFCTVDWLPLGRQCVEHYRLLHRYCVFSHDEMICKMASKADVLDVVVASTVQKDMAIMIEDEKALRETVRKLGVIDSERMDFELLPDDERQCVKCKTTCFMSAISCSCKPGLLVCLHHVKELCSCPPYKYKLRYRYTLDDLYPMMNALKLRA
Description: (§1) U2OS cells were seeded 24 hours before transfection. Transfection was performed with Fugene HD transfection reagent as recommended by the manufacturer. 6 hours after transfection, the cells were harvested and seeded into multi well plates into media containing compound. The media used was DMEM containing 10% FBS and pen/strep. 20 hours after incubation of cells with compounds, the cells were washed in PBS, harvested by fixation with formaldehyde 4% aqueous solution, and washed in PBS. Subsequently, the cells were permeabilized in PBS with 0.2% Triton X-100 for. Blocking was performed in PBS with 0.2% Triton X-100 and 5% FBS. The cells were incubated with primary antibodies in blocking solution over night at 4° C. The primary antibodies used in the assays were HA.11 (Covance, MMS-101P) and the antibody detecting the mark specified in the table below. After incubation with primary antibodies, the cells were washed with PBS, incubated with secondary antibodies (Alexa fluor 594 goat anti rabbit IgG, Invitrogen, A11012; Alexa flour 488 donkey anti mouse IgG, Invitrogen, A21202) and Hoechst, (Sigma, 33342) in blocking solution, and washed again with PBS. Finally, PBS was added and high throughput imaging and analysis were performed by an IN Cell Analyzer 1000 (GE Healthcare). The robot software analyzed individual cells and divided these into HA+ (transfected cells) and HA− (non-transfected cells). The IC50 values were based on an average measure of the staining of the mark specified in the table below in the transfected cells.

KDM4C = target: T2, KDM4C (Homo sapiens, UniProt Q9H3R0); assay: Histone lysine demethylase immunofluorescence assay, U2OS cells transfected with KDM4C; conditions: U2OS cells transfected with pCMVHA KDM4C; mark detected H3K9me3; 20 hours
T2 construct: Full length; host or cells: U2OS
T2 sequence (Q9H3R0 1-1056): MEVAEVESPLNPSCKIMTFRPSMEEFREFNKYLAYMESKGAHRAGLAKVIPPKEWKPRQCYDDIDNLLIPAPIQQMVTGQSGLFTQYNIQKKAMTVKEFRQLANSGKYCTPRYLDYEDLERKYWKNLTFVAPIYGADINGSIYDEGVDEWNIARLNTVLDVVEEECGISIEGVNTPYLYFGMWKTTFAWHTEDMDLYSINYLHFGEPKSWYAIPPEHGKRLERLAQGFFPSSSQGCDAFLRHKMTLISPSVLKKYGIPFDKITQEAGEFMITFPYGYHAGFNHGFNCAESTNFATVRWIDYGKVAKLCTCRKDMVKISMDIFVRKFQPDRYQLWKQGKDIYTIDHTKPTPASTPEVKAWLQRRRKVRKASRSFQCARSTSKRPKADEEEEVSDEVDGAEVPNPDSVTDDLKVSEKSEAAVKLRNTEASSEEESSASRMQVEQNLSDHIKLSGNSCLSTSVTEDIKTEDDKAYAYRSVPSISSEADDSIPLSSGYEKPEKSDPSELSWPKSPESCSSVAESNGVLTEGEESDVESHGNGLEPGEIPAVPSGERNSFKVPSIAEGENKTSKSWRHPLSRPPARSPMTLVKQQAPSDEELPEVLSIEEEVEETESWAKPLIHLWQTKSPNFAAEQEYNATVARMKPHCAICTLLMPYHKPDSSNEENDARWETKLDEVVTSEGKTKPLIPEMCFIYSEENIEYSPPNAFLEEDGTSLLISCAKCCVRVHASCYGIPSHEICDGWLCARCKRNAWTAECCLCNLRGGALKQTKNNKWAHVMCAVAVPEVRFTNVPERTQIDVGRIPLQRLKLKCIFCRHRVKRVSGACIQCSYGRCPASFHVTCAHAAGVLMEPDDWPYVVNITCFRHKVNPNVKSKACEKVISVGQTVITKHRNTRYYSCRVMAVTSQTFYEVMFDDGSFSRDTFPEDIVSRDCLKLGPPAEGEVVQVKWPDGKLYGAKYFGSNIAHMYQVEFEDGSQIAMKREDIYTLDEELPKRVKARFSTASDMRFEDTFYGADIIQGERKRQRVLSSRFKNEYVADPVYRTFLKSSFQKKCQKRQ
Description: as §1

KDM2A = target: T3, KDM2A (Homo sapiens, UniProt Q9Y2K7); assay: Histone lysine demethylase immunofluorescence assay, U2OS cells transfected with KDM2A; conditions: U2OS cells transfected with pCMVHA KDM2A; mark detected H3K36me2; 20 hours
T3 construct: Full length; host or cells: U2OS
T3 sequence (Q9Y2K7 1-1162): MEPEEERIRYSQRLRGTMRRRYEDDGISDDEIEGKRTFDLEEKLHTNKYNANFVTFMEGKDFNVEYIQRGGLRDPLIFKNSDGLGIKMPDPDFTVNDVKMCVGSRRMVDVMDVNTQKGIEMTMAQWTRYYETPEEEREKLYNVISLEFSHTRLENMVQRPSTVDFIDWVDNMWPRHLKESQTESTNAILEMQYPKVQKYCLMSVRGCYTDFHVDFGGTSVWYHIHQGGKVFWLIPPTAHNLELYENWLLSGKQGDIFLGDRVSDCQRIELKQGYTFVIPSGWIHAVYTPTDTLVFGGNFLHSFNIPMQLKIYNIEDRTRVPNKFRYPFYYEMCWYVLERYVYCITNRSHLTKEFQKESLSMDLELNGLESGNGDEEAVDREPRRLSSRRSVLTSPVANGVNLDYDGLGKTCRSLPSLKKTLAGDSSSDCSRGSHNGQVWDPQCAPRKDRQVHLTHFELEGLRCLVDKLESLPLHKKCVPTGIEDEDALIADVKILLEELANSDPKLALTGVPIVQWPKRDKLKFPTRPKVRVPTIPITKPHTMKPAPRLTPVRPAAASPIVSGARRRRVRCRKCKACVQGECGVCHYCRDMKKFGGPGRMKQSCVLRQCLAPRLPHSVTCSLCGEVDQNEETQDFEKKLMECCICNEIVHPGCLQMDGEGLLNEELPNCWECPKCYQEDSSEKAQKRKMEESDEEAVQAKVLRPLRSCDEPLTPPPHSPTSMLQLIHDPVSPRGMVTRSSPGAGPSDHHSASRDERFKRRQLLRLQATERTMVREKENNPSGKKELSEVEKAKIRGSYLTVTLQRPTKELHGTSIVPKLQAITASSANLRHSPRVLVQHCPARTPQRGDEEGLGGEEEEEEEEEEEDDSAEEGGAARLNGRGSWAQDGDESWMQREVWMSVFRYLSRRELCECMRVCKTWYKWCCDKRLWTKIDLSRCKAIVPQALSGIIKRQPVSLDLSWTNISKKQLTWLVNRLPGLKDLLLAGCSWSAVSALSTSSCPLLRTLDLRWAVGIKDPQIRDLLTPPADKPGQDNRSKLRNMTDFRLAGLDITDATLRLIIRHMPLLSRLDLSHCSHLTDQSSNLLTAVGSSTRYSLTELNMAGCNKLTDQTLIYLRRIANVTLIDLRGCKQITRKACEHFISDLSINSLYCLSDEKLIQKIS
Description: as §1

IC50 (KDM5B): > 2500 nM
IC50 (KDM4C): > 2500 nM
IC50 (KDM2A): > 2500 nM
SMILES: CN(CCc1ccccc1)C(=O)CNCc1cc(/C=N/CCO)ccn1 [Compound 96, 2-[{4-[([(2-hydroxyethyl)imino]-methyl]pyridin-2-yl}methyl)amino]-N-methyl-N-(2-phenylethyl)acetamide]
